Laboratory results taken from US11542288B2, “Antiviral compounds” (priority 2020, dated 2023).

How the values were obtained:
HIV-1 protease I84V = molecular target: T1, HIV-1 protease I84V (Human immunodeficiency virus type 1 group M subtype B, UniProt P12497, I572V/Q495K); experiment: HIV enzyme inhibition assay (Ki), I84V variant; format: biochemical; conditions: drug-resistant protease variant I84V
T1 construct: onto NL4-3 wild-type protease on a pET11a plasmid; made in house

HIV-1 protease I50V/A71V = molecular target: T2, HIV-1 protease I50V/A71V (Human immunodeficiency virus type 1 group M subtype B, UniProt P12497, A559V/I538V/Q495K); experiment: HIV enzyme inhibition assay (Ki), I50V/A71V variant; format: biochemical; conditions: drug-resistant protease variant I50V/A71V
T2 construct: onto NL4-3 wild-type protease on a pET11a plasmid; made in house

HIV-1 protease 8 Mutant = molecular target: T3, HIV-1 protease 8 Mutant (Human immunodeficiency virus type 1 group M subtype B, UniProt P12497); experiment: HIV enzyme inhibition assay (Ki), 8 Mutant variant; format: biochemical; conditions: drug-resistant protease variant 8 Mutant
T3 construct: onto NL4-3 wild-type protease on a pET11a plasmid with codon optimization for protein expression in Escherichia coli; A Q7K mutation was included to prevent autoproteolysis

HIV-1 protease 10 Mutant = molecular target: T4, HIV-1 protease 10 Mutant (Human immunodeficiency virus type 1 group M subtype B, UniProt P12497); experiment: HIV enzyme inhibition assay (Ki), 10 Mutant variant; format: biochemical; conditions: drug-resistant protease variant 10 Mutant
T4 construct: onto NL4-3 wild-type protease on a pET11a plasmid with codon optimization for protein expression in Escherichia coli; A Q7K mutation was included to prevent autoproteolysis

HIV-1 protease 11 Mutant = molecular target: T5, HIV-1 protease 11 Mutant (Human immunodeficiency virus type 1 group M subtype B, UniProt P12497); experiment: HIV enzyme inhibition assay (Ki), 11 Mutant variant; format: biochemical; conditions: drug-resistant protease variant 11 Mutant
T5 construct: onto NL4-3 wild-type protease on a pET11a plasmid with codon optimization for protein expression in Escherichia coli; A Q7K mutation was included to prevent autoproteolysis

wild-type HIV-1 = experiment: HIV antiviral assay (293T / TZM-BL luciferase); format: cell-based; conditions: read-out: Antiviral WT EC50
[1] = system: SP cells (chronically infected with HTLV-1); experiment: SP cell Gag processing (HTLV-1 maturation) immunoblot; format: cell-based; conditions: for FL Gag band percentage (mean±SEM): 48 h; for amount of full-length (FL) Gag and larger size cleavage intermediates (CI): SP cell lysates and supernatants, 50 μM or 100 μM
Method: SP Cell Culture and Protease Inhibition Treatments. SP cells were cultured in RPMI (Invitrogen, Carlsbad, Calif., USA) containing 20% HyClone (FC3) from Thermo Scientific (Waltham, Mass.) and 1% penicillin-streptomycin from Life Technologies (Grand Island, N.Y., USA) and supplemented with human IL-2 (Roche Diagnostics, Indianapolis, Ind., USA) at a concentration of 10 U/mL. Cells were grown to a density of […], and the media was exchanged into media containing the drug treatment at the two concentrations tested (50 μM and 100 μM). DMSO was used as a treatment control at the max concentration (0.01% v/v) as used for the sample with the highest inhibitor concentrations. Cells were treated for 48 h in an incubator at 37° C. with 5% CO2. To harvest the samples, the cell culture supernatant and cells were separated with a 5 min spin at 1000 g. The cell culture supernatant was filtered through a 0.22 μm syringe filter and ultracentrifuged over an 8% Optiprep cushion (Millipore Sigma, USA) (109,000 g for 1.5 hat 4° C.) in a 50.1 Ti rotor (Beckman Coulter, USA). The resulting viral pellet was resuspended in 200 μL of RIPA buffer (150 mM NaCl, 1% (v/v) Nonidet P-40, 0.5% sodium deoxycholate, 0.1% SDS, 25 mM Tris pH 7.4) supplemented with a cOmplete, Mini, EDTA-free cellular Protease Inhibitor Cocktail (Roche Diagnostics, Indianapolis, Ind., USA). The SP cell pellet was washed once with phosphate buffered saline (PBS) and resuspended in a final volume of 200 μL of a RIPA buffer cOmplete, Mini, EDTA-free cellular Protease Inhibitor Cocktail (Roche Diagnostics, Indianapolis, Ind., USA). Immunoblot samples were then prepared and detected as described in the previous method section. Gel band quantification analysis was performed using Fiji. A one-tailed t test for two independent means (95% confidence) was used to determine if the FL Gag band from the various drug treatments in the immunoblot analysis was statistically different from the DMSO controls.
To further validate inhibition of HTLV-1 protease, SP cells (which are chronically infected with HTLV-1) were treated with the same inhibitors (FIG. 20). The SP cell line harbors low numbers of HTLV-1 proviruses and produces virus particles that incorporate full-length Gag, which makes SP an ideal cell culture system for testing the inhibition of HTLV-1 maturation. Gag cleavage products were detected by using a CA (p24) primary antibody in both SP cell lysates and virus particles released in the cell culture supernatants. […] For the Ex.7 treatment of the viral particles produced from the SP cells, the FL Gag band percentage was 5.8±2.8% and 12.9±3.1% (mean±SEM) for 50 μM and 100 μM treatments, respectively (FIGS. 21, 23).

HIV-1 protease KY24 = HIV-1 protease KY24 (Human immunodeficiency virus type 1, UniProt P12497); conditions: read-out: Ki KY24; drug-resistant protease variant KY24
HTLV-1 protease [2] = molecular target: T6, HTLV-1 protease (Human T-cell leukemia virus type I, UniProt Q82134, L40I); conditions: HTLV-1 protease
HTLV-1 protease [3] = molecular target: T6, HTLV-1 protease; experiment: biochemical
HTLV-1 protease [4] = molecular target: T6, HTLV-1 protease; format: biochemical; design: This protease construct has 9 amino acids removed from the C-terminus to facilitate crystallization; made in house; host or cells: Escherichia coli; conditions: 1:1 ratio inhibitor to protease (1 μM), 60 min, 37° C.

Row | SMILES | Ki (HIV-1 protease I84V) [nM] | Ki (HIV-1 protease I50V/A71V) [nM] | Ki (HIV-1 protease 8 Mutant) [nM] | Ki (HIV-1 protease 10 Mutant) [nM] | Ki (HIV-1 protease 11 Mutant) [nM] | EC50 (wild-type HIV-1) [nM] | FL Gag band percentage (mean±SEM) ([1]; SP cell lysate, 50 μM) [%] | FL Gag band percentage (mean±SEM) ([1]; SP cell lysate, 100 μM) [%] | amount of full-length (FL) Gag and larger size cleavage intermediates (CI) [1] | FL Gag band percentage (mean±SEM) ([1]; viral particles produced from SP cells, 50 μM) [%] | FL Gag band percentage (mean±SEM) ([1]; viral particles produced from SP cells, 100 μM) [%] | Ki (HIV-1 protease KY24) [nM] | fold improvement of Ki compared to DRV (HTLV-1 protease [2]; relative to DRV) [fold] | fold better inhibition than UM6 (HTLV-1 protease [2]; relative to UM6) [fold] | Ki (HTLV-1 protease [3]) [nM] | inhibition of Gag cleavage and VLP maturation (HTLV-1 protease [4])
1 | CCOP(=O)(COc1ccc(C[C@H](NC(=O)O[C@H]2CO[C@H]3OCC[C@H]32)[C@H](O)CN(CC(CC)CC)S(=O)(=O)c2ccc(N)cc2)cc1)OCC [Example 7, (3R,3aS,6aR)-hexahydrofuro[2,3-b]furan-3-yl ((2S,3R)-4-((4-amino-N-(2-ethylbutyl)phenyl)sulfonamido)-1-(4-((diethoxyphosphoryl)methoxy)phenyl)-3-hydroxybutan-2-yl)carbamate] | < 0.005 | < 0.005 | 4.71 ± 0.73 | 51.6 ± 5.5 | 106 ± 7 | 16 | 32.4±15.5 | 41.0±13.7 | increased | 5.8±2.8 | 12.9±3.1 | 1.08 ± 0.06 | 26 | 4 | 30 ± 10 | effectively inhibited Gag cleavage and VLP maturation
2 | CC(C)CN(C[C@@H](O)[C@H](Cc1ccccc1)NC(=O)O[C@H]1CO[C@H]2OCC[C@H]21)S(=O)(=O)c1ccc(N)cc1 [DRV, darunavir, reference compound] |  |  |  |  |  | 4.75 |  |  | increased |  |  |  |  |  |  | effectively inhibited Gag cleavage and VLP maturation
